In ChEMBL document CHEMBL1158814, “Lehualides A-D, metabolites from a Hawaiian sponge of the genus Plakortis” (J Nat Prod, 2005):
Converted amounts (≈) assume the structure as drawn.

Experiments:
[1] = Toxicity against brine shrimp; format: organism-based; conditions: artemia, in vivo; read-out: LD50 (the source's name)
[2] = test system: K562; assay: Cytotoxicity against human K562 cells; format: functional
[3] = Cytotoxicity against human IGROV-ET cells; format: functional

## COc1oc(C/C=C(\C)CCCCCCCCCSC(C)=O)c(C)c(=O)c1OC [LEHUALIDE C]
[1]
  LC50: 15 µg/mL (≈ 35.3 µM)

## COc1oc(C/C=C(\C)CCCCCCCCCS)c(C)c(=O)c1OC [LEHUALIDE D]
[2]
  GI50: 230 nM
[1]
  LC50: 15 µg/mL (≈ 39.2 µM)
[3]
  GI50: 730 nM

## COc1oc(C/C=C(\C)CC/C=C(/C)C/C(C)=C/Cc2ccccc2)c(C)c(=O)c1OC [LEHUALIDE B]
[1]
  LC50: 15 µg/mL (≈ 34.4 µM)
[3]
  GI50: 830 nM

## COc1c(O)c(C)c(C/C=C(\C)CC/C=C(/C)C/C(C)=C/Cc2ccccc2)oc1=O [LEHUALIDE A]
[1]
  LC50: 50 µg/mL (≈ 118 µM)
